Patent US10995117B2, “Peptide for skin regeneration or wound treatment and use thereof” (KINE SCIENCES CO., LTD., priority 2016, dated 2021)

Legend:
Balb/c nude mouse [1] = assay: Acute wound animal model, histological change (H&E staining); assay type: in vivo; details: skin tissue on day 5 after acute wound
Procedure: (§1) After an 8-week-old Balb/c nude mouse was anesthetized with Avertin (2.5%), the skin of the animal's back was cut by using a circular punch having a 10 mm diameter to induce an acute wound. The peptide was treated (500 ng/one time) at the site of excision total 5 times at 24-hour intervals at the site of excision and reduction of the wound area over time was measured for 14 days and an EGF was used as a positive control group (10 ug/one time). In this case, the peptide was treated with 20% pluronic F-127 (PBS) in a mixture state and the wound sizes over time were measured and digitized using a digital camera and an ImageJ program and compared with each other.
An acute wound was induced in the same manner as in Example 6-1, and the skin tissue was cut on 5 day after the acute wound was induced to prepare tissue fragments. Thereafter, histological changes according to peptide treatment were observed by H&E staining and observing the H&E staining by a microscope. Meanwhile, an EGF was used as a positive control group.

[2] = tested on: Col1A1 (collagen type I, alpha 1) mRNA; assay: Col1A1 mRNA expression of human dermal fibroblasts (real-time PCR); assay type: cell-based; details: at a concentration of 10 ng/ml or more
Procedure: (§2) Collagen is a main ingredient of skin connective tissues, and increased collagen expression is essential in wound healing such as a gash or skin regeneration. As a result, in Example 2, the production ability of collagen of human dermal fibroblasts (HDF) according to the treatment of the peptide (peptide 1) prepared in Example 1 was evaluated by an experimental method disclosed in the existing document (J. Biol. Chem. 1993 268(14): 9941-9944). First, the human dermal fibroblasts were cultured in a DMEM medium added with 10% fetal bovine […] (FBS), and the cultured cells were divided into a 6-well plate at a concentration of 2×10^5 cell/well and cultured for 24 hours, and then the medium was replaced with 2% FBS. After 24 hours from this, the cells were treated with the peptide (100, 10, 1 ng/ml) of the present invention, and thereafter, an amount of procollagen secreted to the culture medium was measured by using a Procollagen Type I C-peptide (PIP) EIA Kit, RNA was extracted with a Trizol reagent, and then the expression of Col1A1 (collagen type I, alpha 1) mRNA of the human dermal fibroblasts was confirmed through real-time PCR. Meanwhile, a separately untreated group (Control) was used as a control group and a TGF-treated group (TGF-) was used as a positive control group.

HaCaT cells = assay: Scratch assay, in vitro wound healing model; assay type: cell-based, human; details: for wound size (quantified) / migration of HaCaT cells: peptide 1 or 10 ng/ml; for migration of HaCaT cells: Mitomycin C pretreated
Procedure: In Example 5, the wound treatment effect according to the treatment of the peptides (peptides 1 and 2) prepared in Example 1 was confirmed through a scratch assay. A human epithelial cell line, HaCaT cells was cultured for 2 hours by adding Mitomycin C (10 ug/ml) in a serum-free medium to […]. After the cells were treated with the peptide (1 or 10 ng/ml) and TGF-β (1 ng/ml) as a positive control group in a medium added with 10% FBS, the migration ability of cells was observed over time and the reduction in wound size was quantified.

human dermal fibroblasts = assay: Procollagen secretion of human dermal fibroblasts (PIP EIA Kit); assay type: cell-based; details: peptide 100, 10, 1 ng/ml, versus control group and TGF-treated group
Procedure: as §2

tyrosinase = biological target: T1, tyrosinase (Mus musculus, UniProt P11344); assay: Tyrosinase activity of melanoma cell line (L-DOPA); assay type: cell-based; details: 24 hours
T1 construct: endogenous in cells; host or cells: B16F10 melanoma cells stimulated with alpha-MSH; Triton X-100 lysate supernatant
T1 sequence (P11344 19-533): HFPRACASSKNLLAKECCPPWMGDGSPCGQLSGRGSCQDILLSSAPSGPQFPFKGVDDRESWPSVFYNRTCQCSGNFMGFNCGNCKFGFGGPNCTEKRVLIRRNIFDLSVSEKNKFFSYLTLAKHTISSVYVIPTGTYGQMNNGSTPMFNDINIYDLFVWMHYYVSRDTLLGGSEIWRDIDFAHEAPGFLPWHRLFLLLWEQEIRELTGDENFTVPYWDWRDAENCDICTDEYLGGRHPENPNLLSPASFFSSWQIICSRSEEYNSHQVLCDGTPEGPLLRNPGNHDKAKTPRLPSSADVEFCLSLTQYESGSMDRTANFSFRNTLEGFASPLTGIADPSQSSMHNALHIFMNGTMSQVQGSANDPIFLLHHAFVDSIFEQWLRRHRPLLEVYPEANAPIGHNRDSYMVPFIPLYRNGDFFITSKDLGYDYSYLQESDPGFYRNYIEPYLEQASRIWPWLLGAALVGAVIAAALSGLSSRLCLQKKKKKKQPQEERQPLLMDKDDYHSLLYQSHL
Procedure: Tyrosinase as a rate-regulating enzyme that catalyzes the reaction in the melanin biosynthesis process was known to play a crucial role in regulating the amount of melanin in the cells. Thus, in Example 4, the tyrosinase activity of the melanoma cell line according to the treatment of the peptide (peptide 1) prepared in Example 1 was evaluated by an experimental method disclosed in the existing document (J. Dermatol. Sci. Vol. 57 (2010) 170-177). The melanoma cell line, B16F10 cells, was divided into a 12 well-plate at a concentration of 1×10^5 cells/well and cultured for 24 hours, and then treated with α-MSH ([…]) and the peptide of the present invention (1, 10, 100 ng/ml), cultured for 24 hours again, and then was washed with PBS and suspended in a 50 mM phosphate buffer (pH 6.8) containing 1% Triton X-100 after washing each well with PBS. After vortexing, the cells was frozen at […] for 30 minutes, dissolved at room temperature, and centrifuged at 1000 g for 10 minutes, and then 40 μl of a supernatant and 100 μl of 10 mM L-DOPA were added to a 96 well-plate and reacted at 37° C. Thereafter, the absorbance was measured at 405 nm with an ELISA reader to confirm the tyrosinase activity of the melanoma cell line. Meanwhile, a separate untreated group was used as a control group and a α-MSH-treated group and a Kojic acid-treated group were used as a positive control group.

B16F10 cells = assay: Melanin production of melanoma cell line; assay type: cell-based; details: 24 hours
Procedure: The color of the skin is determined by an amount of melanin pigment produced by melanoma cells, and many studies have been conducted to improve abnormal pigmentation of the skin. Particularly, excessive pigmentation caused by chronic gashes is considered as a major medical problem, but no definitive treatment method has yet been developed. Thus, in Example 2, the production ability of melanin of a melanoma cell line according to the treatment of the peptide (peptide 1) prepared in Example 1 was evaluated by an experimental method disclosed in the existing document (Life Sci. 2013 Aug. 14; 93(5-6):226-32). The melanoma cell line, B16F10 cells, was cultured in a DMEM medium added with 10% fetal bovine […], and the cultured cells were divided into a 12 well-plate at a concentration of 1×10^5 cells/well. After the culture for 24 hours, α-MSH (10 uM) promoting melanin synthesis and the peptide (1, 10, and 100 ng/ml) of the present invention were treated and cultured again for 24 hours, added with 200 μl of a 1N NaOH solution after washing each well with PBS, and then dissolved at 100° C. for 30 minutes. Thereafter, the absorbance was measured at 405 nm with an ELISA reader to confirm the amount of melanin produced from the melanoma cell line. Meanwhile, an untreated group was used as a control group and a α-MSH-treated group was used as a positive control group.

Balb/c nude mouse [3] = assay: Acute wound animal model, change in wound size; assay type: in vivo; details: 10 mm punch wound, 500 ng/one time, 5 times at 24-hour intervals, 14 days
Procedure: as §1

tyrosinase activity of the melanoma cell line (tyrosinase; B16F10 cells) | Substance | epithelialization (Balb/c nude mouse [1]) | thicknesses of epidermis and dermis layers (Balb/c nude mouse [1]) | expression of Col1A1 [2] | wound size (quantified) (HaCaT cells; HaCaT cells) | migration of HaCaT cells (HaCaT cells) | secretion amount of procollagen (human dermal fibroblasts) | tyrosinase activity of the melanoma cell line (tyrosinase; B16F10 cells, 10, 100 ng/ml, no significant difference from Kojic acid-treated group) | production amount of melanin (B16F10 cells; α-MSH (10 uM) plus peptide 1, 10, 100 ng/ml, no significant difference from non-α-MSH-treated group) | wound reduction effect at low concentration (HaCaT cells; HaCaT cells, 1 ng/ml) | wound size effect compared with peptide 1 (HaCaT cells; HaCaT cells, 1 or 10 ng/ml) | wound treatment effect compared with peptide 1 (Balb/c nude mouse [3]) | amount of melanin produced (B16F10 cells; α-MSH (10 uM) alone)
 | REGRT (peptide 1) | actively progressed | larger than those of a PBS negative control group | significantly increased | significant reduction | increased in a peptide concentration-dependent manner | increased compared to the control group and the TGF-treated group | greatly reduced | greatly reduced |  |  |  | 
 | REGRTREGRT (peptide 2) | actively progressed | larger than those of a PBS negative control group |  | significant reduction | increased in a peptide concentration-dependent manner |  |  |  | definite wound reduction effect | more remarkable | excellent effect as compared to the case treated with the peptide 1 | 
greatly increased | α-MSH [reference compound] |  |  |  |  |  |  |  |  |  |  |  | a large amount of melanin was produced
